Data taken from ChEMBL document CHEMBL4842391, “Discovery and Nanosized Preparations of (S,R)-Tylophorine Malate as Novel anti-SARS-CoV-2 Agents” (ACS Med Chem Lett, 2021).
The source made the active and inactive calls. No cut-off for these calls is given here.

Experiments:
[1] = Toxicity in Hamster rat infected with SARS-CoV-2 C-Tan-nCoV Wuhan strain 01 assessed as body weight loss at 5 mg/kg, inh measured after 4 days; format: organism-based; details: in vivo, inhaled_or_intranasal, 96 h, time 4 day
[2] = Safety index, ratio of CC50 for African green monkey Vero cells to EC50 for antiviral activity against SARS-CoV-2 C-Tan-nCoV Wuhan strain 01 infected in African green monkey Vero cells; format: toxicity; details: read-out: Ratio CC50/EC50
[3] = tested on: SARS-CoV-2; test: Antiviral activity against SARS-CoV-2 C-Tan-nCoV Wuhan strain 01 infected in African green monkey Vero cells assessed as inhibition of viral replication measured after 48 hrs by RT-qPCR method; format: functional, organism-based; details: Severe acute respiratory syndrome coronavirus 2, C-Tan-nCoV Wuhan strain 01, Vero
[4] = Cytotoxicity against African green monkey Vero cells; format: cell-based; details: chlorocebus sabaeus
[5] = tested on: SARS-CoV-2; test: Antiviral activity against SARS-CoV-2 C-Tan-nCoV Wuhan strain 01 virus infected in Hamster rat assessed as widening of alveolar septum at 25 mg/kg, inh administered for 3 days starting from 1 hr post infection and measured on day 4 by histopathological analysis; format: functional, organism-based; details: Severe acute respiratory syndrome coronavirus 2, time 4.0 day
[6] = tested on: SARS-CoV-2; test: Antiviral activity against SARS-CoV-2 C-Tan-nCoV Wuhan strain 01 virus infected in Hamster rat assessed as widening of bronchus at 25 mg/kg, inh administered for 3 days starting from 1 hr post infection and measured on day 4 by histopathological analysis; format: functional, organism-based; details: Severe acute respiratory syndrome coronavirus 2, time 4.0 day
[7] = tested on: SARS-CoV-2; test: Antiviral activity against SARS-CoV-2 C-Tan-nCoV Wuhan strain 01 virus infected in Hamster rat assessed as widening of alveolar septum at 5 mg/kg, inh administered for 3 days starting from 1 hr post infection and measured on day 4 by histopathological analysis; format: functional, organism-based; details: Severe acute respiratory syndrome coronavirus 2, time 4.0 day
[8] = Toxicity in Hamster rat infected with SARS-CoV-2 C-Tan-nCoV Wuhan strain 01 assessed as body weight loss at 25 mg/kg, inh measured after 4 days; format: organism-based; details: in vivo, inhaled_or_intranasal, 96 h, time 4 day
[9] = tested on: SARS-CoV-2; test: Antiviral activity against SARS-CoV-2 C-Tan-nCoV Wuhan strain 01 virus infected in Hamster rat assessed as widening of perivascular interstitium at 5 mg/kg, inh administered for 3 days starting from 1 hr post infection and measured on day 4 by histopathological analysis; format: functional, organism-based; details: Severe acute respiratory syndrome coronavirus 2, time 4.0 day
[10] = tested on: SARS-CoV-2; test: Antiviral activity against SARS-CoV-2 C-Tan-nCoV Wuhan strain 01 virus infected in Hamster rat assessed as widening of perivascular interstitium at 25 mg/kg, inh administered for 3 days starting from 1 hr post infection and measured on day 4 by histopathological analysis; format: functional, organism-based; details: Severe acute respiratory syndrome coronavirus 2, time 4.0 day
[11] = tested on: SARS-CoV-2; test: Antiviral activity against SARS-CoV-2 C-Tan-nCoV Wuhan strain 01 virus infected in Hamster rat assessed as infiltration of neutrophils at 5 mg/kg, inh administered for 3 days starting from 1 hr post infection and measured on day 4 by histopathological analysis; format: functional, organism-based; details: Severe acute respiratory syndrome coronavirus 2, time 4.0 day
[12] = tested on: SARS-CoV-2; test: Antiviral activity against SARS-CoV-2 C-Tan-nCoV Wuhan strain 01 virus infected in Hamster rat assessed as infiltration of lymphocytes at 5 mg/kg, inh administered for 3 days starting from 1 hr post infection and measured on day 4 by histopathological analysis; format: functional, organism-based; details: Severe acute respiratory syndrome coronavirus 2, time 4.0 day
[13] = tested on: SARS-CoV-2; test: Antiviral activity against SARS-CoV-2 C-Tan-nCoV Wuhan strain 01 virus infected in Hamster rat assessed as widening of bronchus at 5 mg/kg, inh administered for 3 days starting from 1 hr post infection and measured on day 4 by histopathological analysis; format: functional, organism-based; details: Severe acute respiratory syndrome coronavirus 2, time 4.0 day
[14] = tested on: SARS-CoV-2; test: Antiviral activity against SARS-CoV-2 C-Tan-nCoV Wuhan strain 01 virus infected in Hamster rat assessed as infiltration of lymphocytes at 25 mg/kg, inh administered for 3 days starting from 1 hr post infection and measured on day 4 by histopathological analysis; format: functional, organism-based; details: Severe acute respiratory syndrome coronavirus 2, time 4.0 day
[15] = tested on: SARS-CoV-2; test: Antiviral activity against SARS-CoV-2 C-Tan-nCoV Wuhan strain 01 virus infected in Hamster rat assessed as infiltration of neutrophils at 25 mg/kg, inh administered for 3 days starting from 1 hr post infection and measured on day 4 by histopathological analysis; format: functional, organism-based; details: Severe acute respiratory syndrome coronavirus 2, time 4.0 day

| Compound | Activity [1] | selectivity ratio [2] | EC50 [3] | CC50 [4] | Activity [5] | Activity [6] | Activity [7] | Activity [8] | Activity [9] | Activity [10] | Activity [11] | Activity [12] | Activity [13] | Activity [14] | Activity [15] |
| --- | --- | --- | --- | --- | --- | --- | --- | --- | --- | --- | --- | --- | --- | --- | --- |
| COc1cc2c3c(c4cc(OC)c(OC)cc4c2cc1OC)CN1CCC[C@H]1C3.O=C(O)C[C@@H](O)C(=O)O | Non-Toxic | 268 | 30 nM | 26200 nM | – | – | – | – | – | – | – | – | – | – | – |
| CCC(CC)COC(=O)[C@H](C)N[P@](=O)(OC[C@H]1O[C@@](C#N)(c2ccc3c(N)ncnn23)[C@H](O)[C@@H]1O)Oc1ccccc1 [REMDESIVIR] | – | – | 800 nM | – | Active | Active | Active | Non-Toxic | Active | Active | Active | Active | Active | Active | Active |
